{"source": "patent US8629164B2", "about": "“Inhibitors of NF-κB” (Profectus Biosciences, Inc., priority 2009, dated 2014)", "key": {"[1]": {"tested_on": "IL-6 secretion from MDA-MB-231 cells", "assay": "IL-6 secretion from MDA-MB-231 cells", "assay_type": "cell-based", "description": "(§1) Specifically, A and B show the effects of the compound of Example 1 on IL-6 and IL-8 secretion from MDA-MB-231 cells stimulated by 20 ng/mL TNF-α. The cells were treated with the indicated concentrations of the compound of Example 1 for 2 hours, and then TNF-α was added and incubation continued for 4 hours."}, "c-Rel": {"molecular_target": "T1, c-Rel (Homo sapiens, UniProt Q04864)", "T1 sequence (Q04864 2-619 limits assumed)": "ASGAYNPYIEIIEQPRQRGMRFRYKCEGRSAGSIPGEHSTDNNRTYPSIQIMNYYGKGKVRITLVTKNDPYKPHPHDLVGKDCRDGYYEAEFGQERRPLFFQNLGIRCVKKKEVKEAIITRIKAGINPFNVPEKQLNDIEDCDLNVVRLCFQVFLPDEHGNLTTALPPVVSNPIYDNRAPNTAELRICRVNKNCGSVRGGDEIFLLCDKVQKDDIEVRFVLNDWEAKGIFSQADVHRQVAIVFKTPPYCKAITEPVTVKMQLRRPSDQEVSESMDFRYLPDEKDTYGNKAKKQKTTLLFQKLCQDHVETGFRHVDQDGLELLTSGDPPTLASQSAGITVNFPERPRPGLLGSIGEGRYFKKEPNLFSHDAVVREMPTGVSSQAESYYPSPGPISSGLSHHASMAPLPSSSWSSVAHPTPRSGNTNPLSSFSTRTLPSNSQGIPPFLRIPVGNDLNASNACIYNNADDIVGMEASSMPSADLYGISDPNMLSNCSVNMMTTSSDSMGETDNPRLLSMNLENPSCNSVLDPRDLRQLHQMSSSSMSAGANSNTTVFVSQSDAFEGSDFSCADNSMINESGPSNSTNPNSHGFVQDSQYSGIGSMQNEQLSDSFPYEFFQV", "assay": "TransAM NF-κB Family DNA Binding ELISA, c-Rel", "conditions": "c-Rel binding IC50 (uM), cells without % sign"}, "[2]": {"tested_on": "PGE2 release from RAW264.7 cells", "assay": "PGE2 release from LPS stimulated RAW264.7 cells", "assay_type": "cell-based, mouse", "conditions": "for EC50: Mus musculus, RAW264.7, RAW 264.7 cells", "description": "as §1, with “soluble PGE2” for “IL-6”, “Il-6” for “IL-8”, “RAW264.7” for “MDA-MB-231”, “1 μg/mL of LPS.” for “20 ng/mL TNF-α.”, “LPS” for “TNF-α”\n(§2) LPS stimulation induces the expression of COX-2 the enzyme responsible for prostaglandin E2."}, "[3]": {"tested_on": "IL-8 secretion from MDA-MB-231 cells", "assay": "IL-8 secretion from MDA-MB-231 cells", "assay_type": "cell-based", "description": "as §1"}, "COX-2 expression": {"tested_on": "COX-2 expression", "assay": "LPS-induced COX-2 expression in RAW264.7 cells", "assay_type": "cell-based, mouse", "conditions": "pretreatment, at 6 to 12 h", "source_text": "as §2"}, "p65 (RelA)": {"molecular_target": "p65 (RelA) (Homo sapiens, UniProt Q04206)", "sequence (Q04206 whole entry)": "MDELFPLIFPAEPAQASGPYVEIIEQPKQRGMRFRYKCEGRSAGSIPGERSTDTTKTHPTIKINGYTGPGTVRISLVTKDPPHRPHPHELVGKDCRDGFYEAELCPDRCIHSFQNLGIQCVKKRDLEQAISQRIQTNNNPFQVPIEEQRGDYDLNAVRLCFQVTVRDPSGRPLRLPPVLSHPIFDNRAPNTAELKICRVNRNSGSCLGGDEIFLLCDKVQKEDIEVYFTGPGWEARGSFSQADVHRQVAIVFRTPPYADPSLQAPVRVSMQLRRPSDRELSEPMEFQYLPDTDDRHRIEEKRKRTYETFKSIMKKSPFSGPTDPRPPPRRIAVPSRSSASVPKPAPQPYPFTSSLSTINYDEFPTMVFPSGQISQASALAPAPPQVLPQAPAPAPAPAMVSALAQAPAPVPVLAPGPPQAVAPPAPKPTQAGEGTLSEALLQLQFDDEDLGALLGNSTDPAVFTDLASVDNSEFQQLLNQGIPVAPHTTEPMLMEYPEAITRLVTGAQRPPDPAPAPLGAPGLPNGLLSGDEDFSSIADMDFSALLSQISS", "assay": "TransAM NF-κB Family DNA Binding ELISA, p65", "conditions": "for IC50: p65 binding IC50 (uM), binding to NF-κB sites"}, "p52": {"molecular_target": "T2, p52 (Homo sapiens, UniProt Q00653)", "T2 sequence (Q00653 1-454 limits assumed)": "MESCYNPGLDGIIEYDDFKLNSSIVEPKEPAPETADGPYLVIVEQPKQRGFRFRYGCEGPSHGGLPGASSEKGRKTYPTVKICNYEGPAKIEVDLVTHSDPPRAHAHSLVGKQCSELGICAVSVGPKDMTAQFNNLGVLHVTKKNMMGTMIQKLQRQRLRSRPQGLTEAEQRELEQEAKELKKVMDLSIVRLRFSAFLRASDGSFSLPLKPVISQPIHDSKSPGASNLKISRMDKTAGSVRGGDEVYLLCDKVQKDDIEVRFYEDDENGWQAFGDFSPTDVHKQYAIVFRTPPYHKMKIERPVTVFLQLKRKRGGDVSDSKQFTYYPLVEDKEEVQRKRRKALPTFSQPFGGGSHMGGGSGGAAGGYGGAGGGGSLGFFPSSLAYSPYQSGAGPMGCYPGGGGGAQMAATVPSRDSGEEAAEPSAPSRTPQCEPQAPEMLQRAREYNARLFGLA", "assay": "TransAM NF-κB Family DNA Binding ELISA, p52", "conditions": "p52 binding IC50 (uM), cells without % sign"}, "[4]": {"tested_on": "MDA-MB-231 breast cancer cells", "assay": "Cytotoxicity and radio-sensitization in MDA-MB-231 breast cancer cells", "assay_type": "cell-based"}, "[5]": {"tested_on": "human RPMI8226 multiple myeloma", "assay": "RPMI8226 multiple myeloma xenograft in mice", "assay_type": "in vivo", "description": "Neither PS-341 (1 mg/kg iv days 1, 4/week×4 weeks) nor the compound of Example 2 (15 mg/kg ip QD×21) treatment achieved statistical significant tumor growth inhibition in this study as compared to vehicle treatment (P>0.10).\nSeveral compounds have been assessed for efficacy studies in rodent disease models. We first sought to obtain in vivo efficacy of the compounds in multiple myeloma which has high incidence of constitutive activation of both the canonical and non-canonical pathways."}, "[6]": {"tested_on": "collagen-induced arthritis", "assay": "Mouse model of collagen-induced rheumatoid arthritis (CIA)"}, "NF-κB [7]": {"tested_on": "NF-κB", "assay": "NF-κB-dependent luciferase expression after IR in p65+/+ MEFs", "conditions": "10 Gy IR"}, "NF-κB [8]": {"tested_on": "NF-κB", "assay": "NF-κB DNA binding activity of p65+/+ MEF nuclear extract after IR", "conditions": "p65+/+ MEFs"}, "[9]": {"tested_on": "mouse embryonic fibroblasts (MEFs)"}, "[10]": {"conditions": "20 μM, TNF-α 20 ng/mL, MDA-MB-231"}}, "note": "Entries after “also recorded” stand apart in the source; their conditions may differ.", "data": [{"compound": "O=C(NC1=CC(=O)C2OC2C1O)c1cccnc1O", "note": "(racemic) [Example 1, (±)-2-hydroxy-N-(2-hydroxy-5-oxo-7-oxabicyclo[4.1.0]hept-3-en-3-yl)nicotinamide]", "values": [{"measurement": "IL-6 secretion, TNF-α stimulated", "setting": "[1]; [10]", "result": "completely inhibited"}, {"measurement": "inhibition of constitutive IL-6 secretion", "setting": "[1]; MDA-MB-231, unstimulated", "result": "dose-dependent manner"}, {"measurement": "IC50", "setting": "c-Rel", "result": 4.6, "unit": "µM"}, {"measurement": "decrease in downstream PGE2 synthesis", "setting": "[2]; LPS stimulated, FIG. 5A", "result": "dose dependent"}, {"measurement": "EC50", "setting": "[2]", "result": 6.9, "unit": "µM"}, {"measurement": "IL-8 secretion, TNF-α stimulated", "setting": "[3]; [10]", "result": "completely inhibited"}, {"measurement": "inhibition of constitutive IL-8 secretion", "setting": "[3]; MDA-MB-231, unstimulated", "result": "dose-dependent manner"}, {"measurement": "LPS-induced COX-2 expression", "setting": "COX-2 expression", "result": "strong inhibition"}, {"measurement": "IC50", "setting": "p65 (RelA)", "result": 2.2, "unit": "µM"}, {"measurement": "IC50", "setting": "p52", "result": 13, "unit": "µM"}]}, {"compound": "O=C(NC1=CC(=O)C2OC2C1O)c1cc2ccccc2nc1O", "note": "(racemic) [Example 2, (±)-2-hydroxy-N-(2-hydroxy-5-oxo-7-oxabicyclo[4.1.0]hept-3-en-3-yl)quinoline-3-carboxamide]", "values": [{"measurement": "enhancement of radiation effect", "setting": "[4]; 0.2 μM, MDA-MB-231", "result": 1.5, "unit": "fold"}, {"measurement": "LD50 of IR + compound", "setting": "[4]; 0.2 μM, MDA-MB-231, IR alone 2.55 Gy", "result": 1.66, "unit": "Gy"}, {"measurement": "LD50, single agent cytotoxic effect", "setting": "[4]; MDA-MB-231 cells", "result": 0.4, "unit": "µM"}, {"measurement": "IC50", "setting": "c-Rel", "result": 2.1, "unit": "µM"}, {"measurement": "EC50", "setting": "[2]", "result": 1.8, "unit": "µM"}, {"measurement": "RPMI8226 tumor growth reduction", "setting": "[5]; Example 2 15 mg/kg ip QD×21, xenograft mice, 15 mg/kg", "result": "same level of tumor growth reduction as PS-341; also recorded: reduced RPMI8226 tumor growth"}, {"measurement": "tolerability in xenograft model", "setting": "[5]; mouse, in vivo", "result": "better tolerated than PS-341"}, {"measurement": "inhibition of p65 (RelA) binding to DNA, comparison", "setting": "p65 (RelA); FIG. 7, canonical pathway", "result": "more potently than DHMEQ and parthenolide"}, {"measurement": "IC50", "setting": "p65 (RelA)", "result": 1.4, "unit": "µM"}, {"measurement": "anti-inflammation effects vs vehicle treated group", "setting": "[6]; Example 2 15 mg/kg s.c. qd 21-35, etanercept 50 ug/mouse ip qd 21-35, P<0.05", "result": "statistal significant anti-inflammation effects"}, {"measurement": "hind paw erythema and swelling (arthritis index score)", "setting": "[6]; daily d21-d35", "result": "significantly reduced"}, {"measurement": "histological evaluation of joints", "setting": "[6]; day 35", "result": "significant reduction of inflammation"}, {"measurement": "myeloperoxidase activities", "setting": "[6]; mouse, in vivo", "result": "concomitant reduction"}, {"measurement": "tolerability of efficacious doses in mice", "setting": "[6]; mouse, in vivo", "result": "well tolerated"}, {"measurement": "NF-κB-dependent luciferase expression after IR", "setting": "NF-κB [7]", "result": "reduced luciferase gene transcription significantly; also recorded: significantly reduced luciferase expression"}, {"measurement": "IC50", "setting": "p52", "result": 6, "unit": "µM"}, {"measurement": "nuclear extract NF-κB DNA binding activities after IR", "setting": "NF-κB [8]", "result": "significantly decreased"}, {"measurement": "cytotoxicity to MEFs", "setting": "[9]; 1.4 μM", "result": "non-cytotoxic"}, {"measurement": "radio-sensitivity of PARP-1+/+ MEFs to IR", "setting": "[9]; 1.4 μM", "result": "increased radio-sensitivities"}, {"measurement": "LD50 of IR + compound", "setting": "[9]; p65+/+ MEFs, 1.4 μM, IR alone 2.3 Gy", "result": 1.5, "unit": "Gy"}, {"measurement": "radio-sensitization of p65−/− MEFs", "setting": "[9]; p65−/− MEFs", "result": "no further effect"}]}]}
